Target: T1, hCRTH2 (Homo sapiens, UniProt Q9Y5Y4)
T1 construct: expressed in transfected cells; host or cells: HEK (human embryonic kidney) cells expressing hCRTH2; membrane preparation
T1 sequence (Q9Y5Y4 1-395): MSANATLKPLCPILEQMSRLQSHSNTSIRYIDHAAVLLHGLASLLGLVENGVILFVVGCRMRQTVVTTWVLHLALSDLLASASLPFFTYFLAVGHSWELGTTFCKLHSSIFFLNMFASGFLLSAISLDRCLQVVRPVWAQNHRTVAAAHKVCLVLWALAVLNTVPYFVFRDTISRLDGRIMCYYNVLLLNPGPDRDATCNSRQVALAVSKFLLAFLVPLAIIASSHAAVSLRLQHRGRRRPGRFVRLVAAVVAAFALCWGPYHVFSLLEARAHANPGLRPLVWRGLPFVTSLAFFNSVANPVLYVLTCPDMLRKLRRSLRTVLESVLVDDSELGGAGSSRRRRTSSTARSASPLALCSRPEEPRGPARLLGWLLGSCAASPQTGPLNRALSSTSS
Assay: Radioligand binding assay ([3H]PGD2 competition, HEK-hCRTH2 membranes)
Conditions: [3H]PGD2 binding
Procedure, shortened: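 Membranes (8-20 μg protein) from HEK-hCRTH2 cells were incubated 60 min at room temperature with 3.0 nM [3H]PGD2 in 50 mM Tris-HCl pH 7.4, 1 mM EDTA, 2 mM MnCl2, 1% DMSO. Non-specific binding defined with 10 μM PGD2. Bound radioactivity counted after filtration.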

Row | Ki (rated A-E (Table A)) | Ki (values in text) | SMILES
1 | 2.1 to 20 nM |  | C[C@]1(c2ccccc2)CCCN(C(=O)c2ccc3nc(-c4ccccc4)c(CCCCC(=O)O)nc3c2)C1 [compound 170, 7-[(3(R)-methyl-3-phenyl-1-piperidinyl)carbonyl]-3-phenyl-2-quinoxalinepentanoic acid]
2 | 2.1 to 20 nM |  | C[C@@]1(c2ccccc2)CCCN(C(=O)c2ccc3nc(-c4ccccc4)c(CCCCC(=O)O)nc3c2)C1 [compound 171, 7-[(3(S)-methyl-3-phenyl-1-piperidinyl)carbonyl]-3-phenyl-2-quinoxalinepentanoic acid]
3 | 0.1 to 2 nM |  | O=C(O)CCCCc1nc2cc(C(=O)N3CC(c4ccccc4)C3)ccc2nc1-c1ccccc1 [compound 172, 3-phenyl-7-[(3-phenyl-1-azetidinyl)carbonyl]-2-quinoxalinepentanoic acid]
4 | 0.1 to 2 nM | 1.6 nM | O=C(O)CCCCc1nc2cc(C(=O)N3CC(c4ccccc4)C3)ccc2nc1-c1ccc(F)cc1 [compound 173, 3-(4-fluorophenyl)--7-[(3-phenyl-1-azetidinyl)carbonyl]-2-quinoxalinepentanoic acid]
5 | 0.1 to 2 nM |  | N#Cc1ccc(C2CN(C(=O)c3ccc4nc(-c5ccccc5)c(CCCCC(=O)O)nc4c3)C2)cc1 [compound 174, 7-[[3-(4-cyanophenyl)-1-azetidinyl]carbonyl]-3-phenyl-2-quinoxalinepentanoic acid]
6 | 2.1 to 20 nM |  | N#Cc1cccc(C2CN(C(=O)c3ccc4nc(-c5ccccc5)c(CCCCC(=O)O)nc4c3)C2)c1 [compound 175, 7-[[3-(3-cyanophenyl)-1-azetidinyl]carbonyl]-3-phenyl-2-quinoxalinepentanoic acid]
7 | 2.1 to 20 nM |  | O=C(O)CCCCc1nc2cc(C(=O)N3CCCC(c4ccccc4)C3)ccc2nc1-c1ccc(Cl)cc1 (stereo not shown) [compound 176, 3-(4-chlorophenyl)-7-[(3-phenyl-1-piperidinyl)carbonyl]-2-quinoxalinepentanoic acid]
8 | 2.1 to 20 nM |  | O=C(O)CCCCc1nc2cc(C(=O)N3CCOCC3)ccc2nc1-c1ccc(Cl)cc1 [compound 177, 3-(4-chlorophenyl)-7-(4-morpholinylcarbonyl)-2-quinoxalinepentanoic acid]
9 | 0.1 to 2 nM |  | C[C@@H](NC(=O)c1ccc2nc(-c3ccc(Cl)cc3)c(CCCCC(=O)O)nc2c1)c1cccc(F)c1 [compound 178, 3-(4-chlorophenyl)-7-[[[1(R)-(3-fluorophenyl)ethyl]amino]carbonyl]-2-quinoxalinepentanoic acid]
10 | 0.1 to 2 nM |  | C[C@H](NC(=O)c1ccc2nc(-c3ccc(Cl)cc3)c(CCCCC(=O)O)nc2c1)c1cccc(F)c1 [compound 179, 3-(4-chlorophenyl)-7-[[[1(S)-(3-fluorophenyl)ethyl]amino]carbony!]-2-quinoxalinepentanoic acid]
11 | 0.1 to 2 nM | 0.6 nM | C[C@@H](NC(=O)c1ccc2nc(-c3ccc(Cl)cc3)c(CCCCC(=O)O)nc2c1)c1cccc(Cl)c1 [compound 180, 3-(4-chlorophenyl)-7-[[[1(R)-(3-chlorophenyl)ethyl]amino]carbonyl]-2-quinoxalinepentanoic acid]
12 | 0.1 to 2 nM |  | C[C@H](NC(=O)c1ccc2nc(-c3ccc(Cl)cc3)c(CCCCC(=O)O)nc2c1)c1cccc(Cl)c1 [compound 181, 3-(4-chlorophenyl)-7-[[[1(S)-(3-chlorophenyl)ethyl]amino]carbonyl]-2-quinoxalinepentanoic acid]
13 | 2.1 to 20 nM |  | C[C@@H](NC(=O)c1ccc2nc(-c3ccc(Cl)cc3)c(CCCCC(=O)O)nc2c1)c1cccnc1 [compound 182, 3-(4-chlorophenyl)-7-[[[1(R)-(3-pyridinyl)ethyl]amino]carbonyl]-2-quinoxalinepentanoic acid]
14 | 2.1 to 20 nM |  | C[C@H](NC(=O)c1ccc2nc(-c3ccc(Cl)cc3)c(CCCCC(=O)O)nc2c1)c1cccnc1 [compound 183]
15 | 0.1 to 2 nM |  | O=C(O)CCCCc1nc2cc(C(=O)N[C@@H]3CCCc4cc(F)ccc43)ccc2nc1-c1ccc(Cl)cc1 [compound 184, 3-(4-chlorophenyl)-7-[[(6-fluoro-1,2,3,4-tetrahydro-1(R)-naphthalenyl)amino]carbonyl]-2-quinoxalinepentanoic acid]
16 | 2.1 to 20 nM |  | O=C(O)CCCCc1nc2cc(C(=O)N[C@H]3CCCc4cc(F)ccc43)ccc2nc1-c1ccc(Cl)cc1 [compound 185, 3-(4-chlorophenyl)-7-[[(6-fluoro-1,2,3,4-tetrahydro-1(S)-naphthalenyl)amino]carbonyl]2-quinoxalinepentanoic acid]
17 | 0.1 to 2 nM |  | O=C(O)CCCCc1nc2cc(C(=O)N[C@@H]3CCCc4cc(Cl)ccc43)ccc2nc1-c1ccc(Cl)cc1 [compound 186, 3-(4-chlorophenyl)-7-[[(6-chloro-1,2,3,4-tetrahydro-1(R)-naphthalenyl)amino]carbonyl]-2-quinoxalinepentanoic acid]

Row | Ki (rated A-E (Table A)) | Ki (values in text) | SMILES
18 | 2.1 to 20 nM |  | O=C(O)CCCCc1nc2cc(C(=O)N[C@H]3CCCc4cc(Cl)ccc43)ccc2nc1-c1ccc(Cl)cc1 [compound 187, 3-(4-chlorophenyl)-7-[[(6-chloro-1,2,3,4-tetrahydro-1(S)-naphthalenyl)amino]carbonyl]-2-quinoxalinepentanoic acid]
19 | 0.1 to 2 nM |  | O=C(O)CCCCc1nc2cc(C(=O)N3CCN(c4ccc(F)cc4)CC3)ccc2nc1-c1ccc(Cl)cc1 [compound 189, 3-(4-chlorophenyl)-7-[[4-(4-fluorophenyl)-1-piperazinyl]carbonyl]-2-quinoxalinepentanoic acid]
20 | 0.1 to 2 nM |  | O=C(O)CCCCc1nc2cc(C(=O)N3CCN(c4ccccc4F)CC3)ccc2nc1-c1ccc(Cl)cc1 [compound 190, 3-(4-chlorophenyl)-7-[[4-(2-fluorophenyl)-1-piperazinyl]carbonyl]-2-quinoxalinepentanoic acid]
21 | 0.1 to 2 nM |  | O=C(O)CCCCc1nc2cc(C(=O)N3CCN(c4ccc(Cl)cc4)CC3)ccc2nc1-c1ccc(Cl)cc1 [compound 191, 3-(4-chlorophenyl)-7-[[4-(4-chlorophenyl)-1-piperazinyl]carbonyl]-2-quinoxalinepentanoic acid]
22 | 2.1 to 20 nM |  | O=C(O)Cc1cccc(CCc2nc3cc(C(=O)NCc4cccc(F)c4)ccc3nc2-c2ccc(F)cc2)c1 [compound 192, 3-[2-[3-(4-fluorophenyl)-7-[[[(3-fluorophenyl)methyl]amino]carbonyl]-2-quinoxalinyl]ethyl]benzencacetic acid]
23 | 2.1 to 20 nM | 14.6 nM | O=C(O)Cc1cccc(CCc2nc3cc(C(=O)NCc4ccc(F)cc4)ccc3nc2-c2ccc(F)cc2)c1 [compound 193, 3-[2-[3-(4-fluorophenyl)-7-[[[(4-fluorophenyl)methyl]amino]carbonyl]-2-quinoxalinyl]ethyl] benzeneacetic acid]
24 | 20.1 to 200 nM |  | N#Cc1ccc(CNC(=O)c2ccc3nc(-c4ccc(F)cc4)c(CCc4cccc(CC(=O)O)c4)nc3c2)cc1 [compound 194]
25 | 20.1 to 200 nM |  | C[C@@H](NC(=O)c1ccc2nc(-c3ccc(F)cc3)c(CCc3cccc(CC(=O)O)c3)nc2c1)c1ccc(F)cc1 [compound 195, 3-[2-[3-(4-fluorophenyl)-7-[[[1(R)-(4-fluorophenyl)ethyl]amino]carbonyl]-2-quinoxalinyl]ethyl] benzeneacetic acid]
26 | 20.1 to 200 nM |  | C[C@H](NC(=O)c1ccc2nc(-c3ccc(F)cc3)c(CCc3cccc(CC(=O)O)c3)nc2c1)c1ccc(F)cc1 [compound 196]
27 | 201 to 700 nM | 464 nM | O=C(O)Cc1cccc(CCc2nc3cc(C(=O)N[C@@H](CCO)c4ccccc4)ccc3nc2-c2ccc(F)cc2)c1 [compound 197, 3-[2-[3-(4-fluorophenyl)-7-[[(3-hydroxy-1(S)-phenylpropyl)amino]carbonyl]-2-quinoxalinyl]ethyl] benzeneacetic acid]
28 | 2.1 to 20 nM |  | O=C(O)Cc1cccc(CCc2nc3cc(C(=O)N4CCC(c5ccccc5)CC4)ccc3nc2-c2ccc(F)cc2)c1 [compound 198, 3-[2-[3-(4-fluorophenyl)-7-[(4-phenyl-1-piperidinyl)carbonyl]-2-quinoxalinyl]ethyl] benzeneacetic acid]
29 | 2.1 to 20 nM |  | O=C(O)Cc1cccc(CCc2nc3cc(C(=O)N4CCN(c5ccccc5)CC4)ccc3nc2-c2ccc(F)cc2)c1 [compound 199, 3-[2-[3-(4-fluorophenyl)-7-[(4-phenyl-1-piperazinyl)carbonyl]-2-quinoxalinyl]ethyl] benzeneacetic acid]
30 | 2.1 to 20 nM |  | O=C(O)Cc1cccc(CCc2nc3cc(C(=O)N4CC(c5ccccc5)C4)ccc3nc2-c2ccc(F)cc2)c1 [compound 200, 3-[2-[3-(4-fluorophenyl)-7-[(3-phenyl-1-azetidinyl)carbonyl]-2-quinoxalinyl]ethyl] benzeneacetic acid]
31 | 0.1 to 2 nM |  | CN(Cc1cccc(F)c1)C(=O)c1ccc2nc(-c3ccc(F)cc3)c(CCc3cccc(CC(=O)O)c3)nc2c1 [compound 201]
32 | 0.1 to 2 nM |  | CN(Cc1ccccc1)C(=O)c1ccc2nc(-c3ccc(F)cc3)c(CCc3cccc(CC(=O)O)c3)nc2c1 [compound 202, 3-[2-[3-(4-fluorophenyl)-7-[[methyl(phenylmethyl)amino]carbonyl]-2-quinoxalinyl]ethyl] benzeneacetic acid]
33 | 2.1 to 20 nM |  | CC(CCCc1nc2cc(C(=O)NCc3cccc(F)c3)ccc2nc1-c1ccc(F)cc1)C(=O)O (stereo not drawn) [compound 203, 3-(4-fluorophenyl)-7-[[[(3-fluorophenyl)methyl]amino]carbonyl]-alpha-methyl-2-quinoxalinepentanoic acid]

From patent US9469615B2, “Quinoxalines and AZA-quinoxalines as CRTH2 receptor modulators” (Merck Sharp & Dohme Corp., priority 2010, dated 2016)
